In the NIST ThermoML archive (doi:10.1021/je9003806):
Numbers after ± are expanded uncertainties.

Test: excess molar enthalpy (molar enthalpy of mixing); xn = mol fraction of the nth substance listed
Details: 101.3 kPa, Liquid, Flow calorimetry

CCOC(=O)CC(=O)OCC [diethyl 1,3-propanedioate] + CC(C)O
excess molar enthalpy [kcal/mol]
Details | 288.2 K | 298.2 K | 313.2 K | 328.2 K
x1 = 0.0511 | 0.145 ± 0.00382 | 0.151 ± 0.00406 | 0.158 ± 0.0043 | 0.163 ± 0.0043
x1 = 0.1001 | 0.244 ± 0.0055 | 0.263 ± 0.00598 | 0.277 ± 0.00645 | 0.292 ± 0.00669
x1 = 0.1511 | 0.322 ± 0.00717 | 0.35 ± 0.00765 | 0.378 ± 0.00837 | 0.39 ± 0.0086
x1 = 0.2012 | 0.387 ± 0.00837 | 0.419 ± 0.00908 | 0.449 ± 0.00956 | 0.473 ± 0.0103
x1 = 0.2494 | 0.431 ± 0.00932 | 0.467 ± 0.01 | 0.51 ± 0.011 | 0.531 ± 0.0115
x1 = 0.3015 | 0.47 ± 0.01 | 0.51 ± 0.011 | 0.557 ± 0.012 | 0.576 ± 0.0124
x1 = 0.3507 | 0.5 ± 0.0108 | 0.542 ± 0.0115 | 0.586 ± 0.0124 | 0.611 ± 0.0131
x1 = 0.3998 | 0.516 ± 0.011 | 0.56 ± 0.012 | 0.606 ± 0.0129 | 0.63 ± 0.0134
x1 = 0.4484 | 0.523 ± 0.0112 | 0.569 ± 0.0122 | 0.616 ± 0.0131 | 0.639 ± 0.0136
x1 = 0.5003 | 0.524 ± 0.0112 | 0.566 ± 0.0122 | 0.611 ± 0.0131 | 0.637 ± 0.0136
x1 = 0.5513 | 0.519 ± 0.0112 | 0.56 ± 0.012 | 0.6 ± 0.0129 | 0.62 ± 0.0131
x1 = 0.6007 | 0.501 ± 0.0108 | 0.539 ± 0.0115 | 0.582 ± 0.0124 | 0.597 ± 0.0127
x1 = 0.6478 | 0.483 ± 0.0103 | 0.52 ± 0.0112 | 0.555 ± 0.012 | 0.561 ± 0.012
x1 = 0.6977 | 0.449 ± 0.00956 | 0.482 ± 0.0103 | 0.511 ± 0.011 | 0.516 ± 0.011
x1 = 0.7508 | 0.398 ± 0.0086 | 0.431 ± 0.00932 | 0.451 ± 0.0098 | 0.454 ± 0.0098
x1 = 0.8007 | 0.345 ± 0.00741 | 0.379 ± 0.00813 | 0.391 ± 0.00837 | 0.387 ± 0.00837
x1 = 0.8468 | 0.286 ± 0.00645 | 0.309 ± 0.00669 | 0.32 ± 0.00717 | 0.302 ± 0.00669
x1 = 0.9023 | 0.185 ± 0.0043 | 0.219 ± 0.00502 | 0.213 ± 0.00502 | 0.202 ± 0.00478
x1 = 0.9537 | 0.0963 ± 0.00263 | 0.111 ± 0.00335 | 0.104 ± 0.00311 | 0.0935 ± 0.00287

CCOC(=O)CC(=O)OCC [diethyl 1,3-propanedioate] + CCCO
excess molar enthalpy [kcal/mol]
Details | 288.2 K | 298.2 K | 313.2 K | 328.2 K
x1 = 0.0499 | 0.116 ± 0.00311 | 0.128 ± 0.00335 | 0.138 ± 0.00382 | 0.143 ± 0.00382
x1 = 0.1004 | 0.207 ± 0.00478 | 0.225 ± 0.00502 | 0.25 ± 0.00574 | 0.266 ± 0.00598
x1 = 0.1588 | – | 0.314 ± 0.00693 | 0.345 ± 0.00765 | 0.371 ± 0.00813
x1 = 0.209 | – | 0.376 ± 0.00813 | 0.415 ± 0.00908 | 0.447 ± 0.00956
x1 = 0.2513 | 0.381 ± 0.00837 | 0.418 ± 0.00908 | 0.458 ± 0.0098 | 0.491 ± 0.0105
x1 = 0.3 | 0.415 ± 0.00884 | 0.456 ± 0.0098 | 0.5 ± 0.0108 | 0.536 ± 0.0115
x1 = 0.3491 | 0.443 ± 0.00956 | 0.485 ± 0.0103 | 0.533 ± 0.0115 | 0.571 ± 0.0122
x1 = 0.3982 | 0.462 ± 0.0098 | 0.504 ± 0.0108 | 0.554 ± 0.012 | 0.593 ± 0.0127
x1 = 0.451 | 0.472 ± 0.01 | 0.515 ± 0.011 | 0.565 ± 0.012 | 0.603 ± 0.0129
x1 = 0.499 | 0.478 ± 0.0103 | 0.52 ± 0.011 | 0.567 ± 0.0122 | 0.602 ± 0.0129
x1 = 0.5503 | 0.474 ± 0.01 | 0.512 ± 0.011 | 0.559 ± 0.012 | 0.592 ± 0.0127
x1 = 0.6002 | 0.462 ± 0.0098 | 0.497 ± 0.0105 | 0.539 ± 0.0115 | 0.567 ± 0.0122
x1 = 0.6479 | 0.445 ± 0.00956 | 0.476 ± 0.0103 | 0.511 ± 0.011 | 0.539 ± 0.0115
x1 = 0.6986 | 0.419 ± 0.00908 | 0.447 ± 0.00956 | 0.47 ± 0.01 | 0.493 ± 0.0105
x1 = 0.7525 | 0.376 ± 0.00813 | 0.399 ± 0.0086 | 0.418 ± 0.00908 | 0.434 ± 0.00932
x1 = 0.797 | 0.334 ± 0.00717 | 0.352 ± 0.00765 | 0.361 ± 0.00789 | 0.375 ± 0.00813
x1 = 0.8506 | 0.269 ± 0.00598 | 0.28 ± 0.00621 | 0.284 ± 0.00621 | 0.294 ± 0.00645
x1 = 0.9003 | 0.196 ± 0.00454 | 0.197 ± 0.00454 | 0.205 ± 0.00478 | 0.204 ± 0.00478
x1 = 0.9527 | 0.105 ± 0.00287 | 0.104 ± 0.00287 | 0.103 ± 0.00287 | 0.0999 ± 0.00287

CCOC(=O)CC(=O)OCC [diethyl 1,3-propanedioate] + CCO
excess molar enthalpy [kcal/mol]
Details | 288.2 K | 298.2 K | 313.2 K | 328.2 K
x1 = 0.0501 | 0.0949 ± 0.00263 | 0.101 ± 0.00287 | 0.114 ± 0.00311 | 0.119 ± 0.00335
x1 = 0.1004 | 0.168 ± 0.00382 | 0.185 ± 0.0043 | 0.205 ± 0.00478 | 0.222 ± 0.00502
x1 = 0.1491 | 0.233 ± 0.00526 | 0.247 ± 0.0055 | 0.279 ± 0.00621 | 0.304 ± 0.00669
x1 = 0.1995 | 0.282 ± 0.00621 | 0.301 ± 0.00645 | 0.337 ± 0.00741 | 0.366 ± 0.00789
x1 = 0.2507 | 0.318 ± 0.00693 | 0.346 ± 0.00741 | 0.387 ± 0.00837 | 0.42 ± 0.00908
x1 = 0.2985 | 0.348 ± 0.00741 | 0.379 ± 0.00813 | 0.425 ± 0.00908 | 0.46 ± 0.0098
x1 = 0.3517 | 0.374 ± 0.00813 | 0.407 ± 0.0086 | 0.454 ± 0.0098 | 0.491 ± 0.0105
x1 = 0.399 | 0.39 ± 0.00837 | 0.425 ± 0.00908 | 0.473 ± 0.01 | 0.51 ± 0.011
x1 = 0.4509 | 0.401 ± 0.0086 | 0.435 ± 0.00932 | 0.486 ± 0.0103 | 0.522 ± 0.0112
x1 = 0.4985 | 0.406 ± 0.0086 | 0.442 ± 0.00956 | 0.489 ± 0.0105 | 0.527 ± 0.0112
x1 = 0.5503 | 0.404 ± 0.0086 | 0.437 ± 0.00932 | 0.485 ± 0.0103 | 0.517 ± 0.011
x1 = 0.6013 | 0.395 ± 0.00837 | 0.428 ± 0.00908 | 0.469 ± 0.01 | 0.499 ± 0.0108
x1 = 0.6504 | 0.38 ± 0.00813 | 0.41 ± 0.00884 | 0.448 ± 0.00956 | 0.477 ± 0.0103
x1 = 0.6967 | 0.359 ± 0.00765 | 0.386 ± 0.00837 | 0.422 ± 0.00908 | 0.442 ± 0.00956
x1 = 0.7465 | 0.328 ± 0.00717 | 0.352 ± 0.00765 | 0.38 ± 0.00813 | 0.396 ± 0.0086
x1 = 0.8002 | 0.284 ± 0.00621 | 0.302 ± 0.00645 | 0.322 ± 0.00693 | 0.333 ± 0.00717
x1 = 0.8497 | 0.232 ± 0.00502 | 0.242 ± 0.00526 | 0.259 ± 0.00574 | 0.269 ± 0.00598
x1 = 0.9027 | 0.164 ± 0.00382 | 0.172 ± 0.00406 | 0.179 ± 0.00406 | 0.186 ± 0.0043
x1 = 0.9498 | 0.0896 ± 0.00263 | 0.0946 ± 0.00263 | 0.105 ± 0.00287 | 0.101 ± 0.00287

CCOC(=O)CC(=O)OCC [diethyl 1,3-propanedioate] + CO
excess molar enthalpy [kcal/mol]
Details | 288.2 K | 298.2 K | 313.2 K | 328.2 K
x1 = 0.05 | 0.066 ± 0.00191 | 0.0734 ± 0.00215 | 0.081 ± 0.00215 | 0.0872 ± 0.00239
x1 = 0.0996 | 0.123 ± 0.00287 | 0.133 ± 0.00311 | 0.146 ± 0.00335 | 0.161 ± 0.00382
x1 = 0.1496 | 0.167 ± 0.00382 | 0.182 ± 0.00406 | 0.203 ± 0.00454 | 0.221 ± 0.00478
x1 = 0.2011 | 0.205 ± 0.00454 | 0.224 ± 0.00478 | 0.249 ± 0.0055 | 0.274 ± 0.00598
x1 = 0.2515 | 0.236 ± 0.00502 | 0.259 ± 0.0055 | 0.286 ± 0.00621 | 0.316 ± 0.00693
x1 = 0.3009 | 0.261 ± 0.00574 | 0.286 ± 0.00621 | 0.318 ± 0.00693 | 0.349 ± 0.00741
x1 = 0.3506 | 0.281 ± 0.00598 | 0.307 ± 0.00669 | 0.343 ± 0.00741 | 0.376 ± 0.00813
x1 = 0.3988 | 0.299 ± 0.00645 | 0.325 ± 0.00693 | 0.361 ± 0.00765 | 0.394 ± 0.00837
x1 = 0.4486 | 0.31 ± 0.00669 | 0.335 ± 0.00717 | 0.374 ± 0.00789 | 0.407 ± 0.0086
x1 = 0.4993 | 0.313 ± 0.00669 | 0.341 ± 0.00741 | 0.378 ± 0.00813 | 0.408 ± 0.00884
x1 = 0.55 | 0.315 ± 0.00669 | 0.343 ± 0.00741 | 0.376 ± 0.00813 | 0.409 ± 0.00884
x1 = 0.5995 | 0.307 ± 0.00669 | 0.337 ± 0.00717 | 0.369 ± 0.00789 | 0.396 ± 0.00837
x1 = 0.6464 | 0.3 ± 0.00645 | 0.323 ± 0.00693 | 0.355 ± 0.00765 | 0.38 ± 0.00813
x1 = 0.698 | 0.282 ± 0.00598 | 0.304 ± 0.00645 | 0.332 ± 0.00717 | 0.353 ± 0.00765
x1 = 0.7453 | 0.261 ± 0.00574 | 0.283 ± 0.00621 | 0.303 ± 0.00645 | 0.316 ± 0.00669
x1 = 0.7969 | 0.234 ± 0.00502 | 0.243 ± 0.00526 | 0.26 ± 0.00574 | 0.278 ± 0.00598
x1 = 0.8536 | 0.19 ± 0.0043 | 0.184 ± 0.00406 | 0.202 ± 0.00454 | 0.213 ± 0.00478
x1 = 0.903 | 0.139 ± 0.00311 | 0.14 ± 0.00335 | 0.144 ± 0.00335 | 0.145 ± 0.00359
x1 = 0.95 | 0.0801 ± 0.00215 | 0.0772 ± 0.00215 | 0.0719 ± 0.00239 | 0.0473 ± 0.00239
